What was measured:
[1] = target: T1, Cyclin-dependent kinase 5 activator 1 [99-307] (Homo sapiens, UniProt Q00535); test: Kinase Inhibition Assay; details: pH 7.2; 30 °C
T1 construct: 99-307

[2] = target: Cyclin-dependent kinase 1/G2/mitotic-specific cyclin-B (Marthasterias glacialis, UniProt P15206+Q9DGD3); test: Kinase Inhibition Assay; details: pH 7.2; 30 °C
Chain of Cyclin-dependent kinase 1/G2/mitotic-specific cyclin-B (Q9DGD3 whole entry): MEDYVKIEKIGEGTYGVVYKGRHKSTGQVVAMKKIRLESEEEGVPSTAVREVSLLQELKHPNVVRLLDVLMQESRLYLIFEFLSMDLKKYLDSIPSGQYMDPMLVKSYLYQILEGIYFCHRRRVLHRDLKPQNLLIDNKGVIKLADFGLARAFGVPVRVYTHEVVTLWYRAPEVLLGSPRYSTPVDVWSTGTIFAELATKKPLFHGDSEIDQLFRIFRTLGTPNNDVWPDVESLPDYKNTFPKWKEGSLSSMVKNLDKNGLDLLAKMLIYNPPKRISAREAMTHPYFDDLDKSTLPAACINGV
Chain of Cyclin-dependent kinase 1/G2/mitotic-specific cyclin-B (P15206 whole entry): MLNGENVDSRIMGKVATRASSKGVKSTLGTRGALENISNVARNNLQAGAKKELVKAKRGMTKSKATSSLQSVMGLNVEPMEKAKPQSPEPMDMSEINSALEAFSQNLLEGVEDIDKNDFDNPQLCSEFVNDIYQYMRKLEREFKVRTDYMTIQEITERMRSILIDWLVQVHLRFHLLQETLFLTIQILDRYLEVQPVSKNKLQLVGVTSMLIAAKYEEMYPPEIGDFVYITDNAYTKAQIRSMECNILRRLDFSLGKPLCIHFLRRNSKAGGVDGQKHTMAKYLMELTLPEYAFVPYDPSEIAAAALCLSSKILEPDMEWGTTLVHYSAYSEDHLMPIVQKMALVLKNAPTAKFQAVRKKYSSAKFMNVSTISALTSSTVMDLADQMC

T1 sequence (Q15078 99-307): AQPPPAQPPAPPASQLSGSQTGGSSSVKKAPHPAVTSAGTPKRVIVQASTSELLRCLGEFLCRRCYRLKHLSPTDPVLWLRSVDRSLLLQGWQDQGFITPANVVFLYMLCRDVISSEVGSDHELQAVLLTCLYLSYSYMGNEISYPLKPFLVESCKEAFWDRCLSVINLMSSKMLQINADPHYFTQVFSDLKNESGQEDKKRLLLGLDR
T1 sequence (Q00535 whole entry): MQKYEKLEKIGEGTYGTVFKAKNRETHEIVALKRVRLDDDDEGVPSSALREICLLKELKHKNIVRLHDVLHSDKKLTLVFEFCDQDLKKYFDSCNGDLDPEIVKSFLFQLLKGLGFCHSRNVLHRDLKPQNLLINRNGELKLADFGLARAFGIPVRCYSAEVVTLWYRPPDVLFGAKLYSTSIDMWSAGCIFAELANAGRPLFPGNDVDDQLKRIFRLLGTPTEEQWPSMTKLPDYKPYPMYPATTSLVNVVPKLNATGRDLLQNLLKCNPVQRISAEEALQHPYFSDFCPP

SMILES: O=Nc1c(C2C(=O)Nc3ccc(I)cc32)[nH]c2ccccc12 (configuration not stated) [3-[(2Z,3E)-3-(hydroxyimino)-2,3-dihydro-1H-indol-2-ylidene]-5-iodo-2,3-dihydro-1H-indol-2-one]
- IC50 [1]: 0.02 µM
- IC50 [2]: 0.025 µM
